Assay results taken from patent US20190352644A1, “INHIBITION OF MITOCHONDRIAL HYPOXIC STRESS INDUCED RNA EDITING BY APOBEC3G CYTIDINE DEAMINASE” (Health Research, Inc., priority 2015, published 2019).

Assays:
[1] = tested on: HuT78 cells; experiment: TM7SF3 C>U RNA editing in HuT78 cells treated with mitochondrial inhibitors or thapsigargin; format: cell-based, human; conditions: HuT78, normoxia; for RNA editing level (TM7SF3): 0.5×10^6 cells per 500 μl, inhibitor 1 μM
Source text: We tested the effect of inhibitors of mitochondrial complex II by atpenin A5 (AtA5) and of the complex III by myxothiazol (MXT) on RNA editing in HuT78 cells cultured in normoxia. Additionally, to test whether endoplasmic reticulum (ER) stress can also induce RNA editing, we treated the cells with Thapsigargin (Tg). Tg is considered to induce ER stress by raising intracellular calcium levels and lowers the ER calcium levels by specifically inhibiting the endoplasmic reticulum Ca^++ ATPase, resulting in the accumulation of unfolded proteins and an increased accumulation eIF-2α phosphorylated at Ser 51 (FIGS. 33c and 35b). To test the effect of hypoxic stress alone on HuT78 cells, we reduced the cell density to avoid cellular crowding and cultured the cells at an intermediate density of 0.5×10^6 cells per 500 μl per well in 24 well plates with or without the chemical inhibitors in normoxia, and hypoxia alone for one or two days. Under these conditions, we determined RNA editing level and the stabilization of HIF-1α in these cells. […] RNA editing levels increased to approximately 30% in cells treated with MXT, AtA5 or hypoxia alone on day 2. […] Furthermore, HIF-1α was stabilized only when the cells were subjected to hypoxia but not in normoxia in the presence or absence of the mitochondrial inhibitors (FIG. 32c).
(§1) For testing the mitochondrial inhibitors, HuT78 and NK-92 cells were cultured at […] cells per 0.5 ml in 24 well plates in normoxia with or without AtA5 and MXT or hypoxia alone for 2 days at 37° C.
(§2) Human IFN-γ was obtained from PeproTech and used at a concentration of 50 ng/ml. AtA5 (Cayman chemical #11898) and MXT (Sigma Aldrich #T5580) was used at a concentration of 1 μM.
(§3) Total RNA was isolated and reverse transcribed to generate cDNAs. DNA primers used for PCR were obtained from Integrated DNA Technologies and are noted in Table 6. Primers used for PCR of cDNA templates were designed such that the amplicons spanned multiple exons. […] To quantify RNA editing level, the major and minor chromatogram peak heights at putative edited nucleotides were quantified with Sequencher 5.0/5.1 software (Gene Codes, MI). […] For quantitative PCR to assess APOBEC3G and APOBEC3F gene expression, reactions using LightCycler™ 480 Probes Master and SYBR™ Green I dye were performed on a LightCycler™ 480 System (Roche). Quantification cycle (Cq) values were calculated by the instrument software using the maximum second derivative method, and the mean Cq value of duplicate PCR reactions was used for analysis.

[2] = tested on: NK-92 cells; experiment: TM7SF3 C>U RNA editing in NK-92 cells treated with mitochondrial inhibitors; format: cell-based, human; conditions: NK-92, normoxia, intermediate density, 24 well plates, inhibitor 1 μM, 2 days
Description: We treated NK-92 cells with normoxia with or without the mitochondrial inhibitors (AtA5 or MXT) or hypoxia alone at intermediate density in 24 well plates for 2 days. […] The reason behind the difference in hypoxia induced RNA editing level of HuT78 and NK-92 cells may be due to metabolic differences between the two cell lines.
as §1, §2
as §3, with “cDNAs.” for “cDNAs. DNA primers used for PCR were obtained from Integrated DNA Technologies and are noted in Table 6. Primers used for PCR of cDNA templates were designed such that the amplicons spanned multiple exons.”

[3] = biological target: T1, APOBEC3A (Homo sapiens, UniProt P31941); experiment: In vitro SDHB RNA editing assay with purified APOBEC3A; format: biochemical; conditions: chelation of zinc with 10 μM 1,10-phenanthroline, 2 hours at 37° C
T1 construct: made in house; host or cells: Rosetta 2(DE3)pLysS E. coli; pET21 construct from Dr. Jinwoo Ahn
Description: Rosetta™ 2(DE3)pLysS E. coli (EMD Millipore®) transformed with a bacterial expression construct for C-His6-tagged APOBEC3A and grown in Luria broth at 37° C. were induced for expression of the recombinant protein with 0.3 mM isopropyl β-D-1-thiogalactopyranoside (IPTG) and cultured overnight at 18° C. Harvested cells were lysed with a French pressure cell (American Instrument Corporation®, Hartland, Wis.) and Ni-NTA His.Bind Resin™ (EMD Millipore®) was used as per manufacturer's instructions to purify APOBEC3A protein from the lysates by affinity chromatography. Isolated protein was concentrated using an Amicon™ Ultra-4 Centrifugal Filter Unit with Ultracel-3 membrane (EMD Millipore®; nominal molecular weight limit of 3 kDa). The concentrated protein was stored in 25 mM Tris (pH 8.0) with 50 mM NaCl, 1 mM DTT, 5% v/v glycerol, and 0.02% w/v sodium azide.
Whole cell lysates of 293T transfectants were prepared using lysis buffer containing 0.2% Surfact-Amps™ NP-40 (Thermo Fisher®), 30 mM 4-(2-hydroxyethyl)-1-piperazine-ethane-sulfonic acid (HEPES; pH 7.5), 100 mM KCl, 25 mM NaCl, 1.5 mM MgCl2, 1 mM DTT, and 0.5× Halt™ protease and phosphatase inhibitor cocktail, and stored with 10% v/v glycerol at −80° C. […]

T1 sequence (P31941 whole entry): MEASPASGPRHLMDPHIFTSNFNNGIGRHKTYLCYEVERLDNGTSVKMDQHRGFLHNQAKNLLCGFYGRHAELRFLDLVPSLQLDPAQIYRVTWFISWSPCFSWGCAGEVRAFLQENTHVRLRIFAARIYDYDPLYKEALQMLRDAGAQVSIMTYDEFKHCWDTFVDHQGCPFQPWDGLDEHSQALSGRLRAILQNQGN

Row | Structure (SMILES) | RNA editing level (TM7SF3) ([1]; day 1) | RNA editing level (TM7SF3) ([1]; day 2) | RNA editing level (TM7SF3) [2] [%] | c.136C>U editing of SDHB RNA by His6-tagged APOBEC3A [3] | induction of RNA editing (TM7SF3) ([1]; one or two days)
1 | CO/C(=C/C(N)=O)[C@H](C)[C@H](/C=C/c1csc(-c2csc([C@@H](C)/C=C/C=C/C(C)C)n2)n1)OC [MXT, myxothiazol] | approximately 10% | approximately 30% | ~25 | – | –
2 | c1cnc2c(c1)ccc1cccnc12 [1,10-phenanthroline] | – | – | – | abolished the editing | –
3 | COc1[nH]c(=O)c(C(=O)[C@@H](C)C[C@H](C)[C@@H](Cl)CCl)c(O)c1OC [AtA5, atpenin A5] | – | approximately 30% | ~25 | – | –
4 | C/C=C(/C)C(=O)O[C@H]1C(C)=C2[C@H]([C@@H]1OC(=O)CCCCCCC)[C@@](C)(OC(C)=O)C[C@H](OC(=O)CCC)[C@@]1(O)[C@H]2OC(=O)[C@@]1(C)O [Tg, Thapsigargin] | – | – | – | – | did not induce RNA editing
